Measurements taken from article PMC6290480 (Cannabis and Cannabinoid Research, 2018).
Converted amounts (≈) assume the structure as drawn. Read-outs that look alike come from different tables or passages of the source.

Experiments:
CB1 [1] = molecular target: T1, CB1 (Homo sapiens, UniProt P21554); assay: biochemical; assay type: binding; conditions: for α (binding cooperativity factor): cooperativity with orthosteric agonist [3H]CP55,940, α >1 positive allosteric modulator
T1 construct: expressed in transfected cells; host or cells: HEK293T cells, transient calcium phosphate transfection, pcDNA3.1 vector; membrane preparation
T1 sequence (P21554 whole entry): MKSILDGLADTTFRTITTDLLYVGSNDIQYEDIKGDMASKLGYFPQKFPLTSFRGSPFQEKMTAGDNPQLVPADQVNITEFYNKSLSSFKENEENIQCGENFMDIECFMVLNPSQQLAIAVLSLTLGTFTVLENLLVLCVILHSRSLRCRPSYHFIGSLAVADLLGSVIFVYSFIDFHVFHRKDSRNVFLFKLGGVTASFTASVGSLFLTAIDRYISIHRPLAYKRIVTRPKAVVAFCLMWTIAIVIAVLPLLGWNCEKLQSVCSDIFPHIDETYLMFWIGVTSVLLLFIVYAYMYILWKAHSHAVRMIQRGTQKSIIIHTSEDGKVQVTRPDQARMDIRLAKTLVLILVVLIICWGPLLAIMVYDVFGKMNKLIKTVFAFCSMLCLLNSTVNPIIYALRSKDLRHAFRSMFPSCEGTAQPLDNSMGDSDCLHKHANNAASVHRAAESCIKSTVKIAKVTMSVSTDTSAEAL
Description: (§1) Human embryonic kidney 293T (HEK293T) cells were grown and seeded in Dulbecco's modified Eagle's medium with 3.5 mg/mL glucose and 10% fetal bovine serum at 37°C and 5% carbon dioxide. To express the CB1 receptors, HEK293T cells were seeded at 1,000,000 cells/100-mm plate. The following day, cells were transfected via the calcium phosphate method with ∼10 μg of human CB1 receptor cloned into pcDNA3.1[23] Membranes of the transfected cells were prepared as previously described 21 h after transfection.[24]
Approximately 3 μg of membrane preparation expressing CB1 was incubated with nine concentrations of allosteric modulator (1 nM-10 μM). The radiolabeled tracer [[3]H]CP55,940 (150.2 Ci/mmol; Perkin Elmer), an orthosteric agonist of CB1, was added at 0.5 nM. Nonspecific binding was established by treating with a high concentration of unlabeled CP55,940 (10 μM; Tocris). The membranes were incubated at 30°C for 60 min, and the reaction was terminated with the addition of 300 μL of Tris-Mg^2+-EDTA (TME) buffer with 5% bovine serum albumin (BSA). The mixture was harvested by filtration through a Brandel cell harvester with Whatman GF/C filter paper. Liquid scintillation counting was used to measure radioactivity.
To synthesize the target azaindole-2-carboxamides, it requires corresponding azaindole-2-carboxylic acids (i.e., 1b and 8) as the key building blocks (Fig. 2). To access these azaindole-2-carboxylic acids, we used the Hemetsberger–Knittel indole synthesis, which involves Knoevenagel condensation between a pyridinecarbaldehyde and the azido acetate 5.[20] […] In this investigation, the 6-azaindole-2-carboxylic acid 1b was obtained from a commercial source (Achemtek, Worcester, MA). […] At the receptor binding level, when α is >1, the ligand is a positive allosteric modulator, whereas when α is <1, the ligand is a negative allosteric modulator. Accordingly, when α is equal to 1, it indicates no allosteric modulation on orthosteric ligand binding.

physchem = assay type: physicochemical; conditions: for solubility thermodynamic at 24 h: 37 °C, pH 7.4, aqueous buffer, thermodynamic from solid
Description: The thermodynamic solubility of selected compounds were tested according to previously reported methods.[16],[22] In brief, stock solution of test compound (1 mg/mL) in acetonitrile was prepared and then diluted with mobile phase to prepare the calibration standards in the concentration range of 0.1–50 μg/mL. Following this, 2 mg of test compound powder was suspended in 2 mL of phosphate-buffered saline (PBS; 10 mM) at pH 7.4 and 37°C. The suspension was stirred at 37°C with 800 rpm stirring for 24 h. After completion of the incubation, the saturated suspension was filtered through a syringe polytetrafluoroethylene filter (0.45 μm), which has no absorption for the compounds. 200 μL of the filtrate was diluted with 800 μL acetonitrile immediately to a final volume of 1 mL. Subsequently, 20 μL of this solution was used for the high-performance liquid chromatography (HPLC) analysis, which was analyzed on Shimadzu HPLC (LC model: LC20AB, UV/vis detector: SPD20A; Autosampler: SIL-20A HT) with a Phenomenex reverse phase C18 column (250×3 mm, Luna 5 μm C18 100Å). The HPLC analysis was carried out by using the mixture of acetonitrile and water (60:40 v/v) as the mobile phase with a flow rate of 1 mL/min. The signals were detected at UV wavelength 254 nm. At this wavelength, each peak's area under the curve was measured and used for the quantitative evaluation.

CB1 [2] = molecular target: T1, CB1; assay: [35S]GTPγS binding evaluation (G-protein coupling); assay type: biochemical; conditions: percent of basal; for [35S]GTPγS binding, allosteric modulator alone: CB1 membranes treated with modulator alone; for [35S]GTPγS binding in the presence of CP55,940: modulator at 5 and 10 μM plus 0.1 μM CP55,940, compared to 0.1 μM CP55,940 alone
Description: as §1
To assess the impact of 3c and 3d on G-protein coupling of CB1, GTPγS assays were performed essentially as described previously.[20] […] GTPγS binding assay buffer (50 mM Tris-HCl, pH 7.4, 3 mM MgCl2, 0.2 mM EGTA, and 100 mM NaCl) was added to 200 μL. The membranes were incubated for 1 h at 30°C. To determine nonspecific binding, 10 μM unlabeled GTPγS (Sigma) was used. To determine basal activity, membrane preparations were treated with vehicle (dimethylsulfoxide or DMSO) alone. Termination of the reaction was achieved through filtration using Whatman GF/C filter papers and washing with cold TME buffer. Bound radioactivity was measured by liquid scintillation counting.

[3] = membranes of HEK293T cells expressing CB1, tracer [3H]CP55,940 0.5 nM, 30°C, 60 min, read-out: KB (equilibrium dissociation constant)
[4] = membranes of HEK293T cells expressing CB1, tracer [3H]CP55,940 0.5 nM, 30°C, 60 min

Structure (SMILES)	α (binding cooperativity factor) (CB1 [1])	Kb (CB1 [1]; [3]) [µM]	Thermodynamic solubility (obtained from experiments) (physchem; 24 h, pH 7.4) [µg/mL]	Kb (CB1 [1]) [µM]	KB (equilibrium dissociation constant) (CB1 [1]; [4])	solubility thermodynamic at 24 h (physchem) [µg/mL]	[35S]GTPγS binding, allosteric modulator alone (CB1 [2])	[35S]GTPγS binding in the presence of CP55,940 (CB1 [2])	reduction of binding to the CB1 receptor in comparison with indole-2-carboxamide counterpart 3b (CB1 [1]; 3d versus 3b)	solubility in common organic solvents suitable for HPLC sample preparation (physchem)
CN(C)c1ccc(CCNC(=O)c2cc3cc(Cl)ccc3[nH]2)cc1 [Compound 3a]	4.2	0.3	0							
O=C(NCCc1ccc(N2CCCCC2)cc1)c1cc2cc(Cl)ccc2[nH]1 [Compound 3b]	5.1			0.2						
CN(C)c1ccc(CCNC(=O)c2cc3cc(Cl)ncc3[nH]2)cc1 [Compound 3c]	3.2	2.4			modest binding affinity	1.6 (≈ 4.67 µM)	inhibition of G-protein coupling was also seen	inhibition of GTPγS binding		
O=C(NCCc1ccc(N2CCCCC2)cc1)c1cc2cc(Cl)ncc2[nH]1 [Compound 3d]		5.6			modest binding affinity		inhibition of G-protein coupling was also seen	inhibition of GTPγS binding	about 25 fold	
CN(C)c1ccc(CCNC(=O)c2cc3cc(Cl)cnc3[nH]2)cc1 [Compound 9a]		> 10			completely lost their binding affinity	3 (≈ 8.75 µM)				exceptionally low solubility
O=C(NCCc1ccc(N2CCCCC2)cc1)c1cc2cc(Cl)cnc2[nH]1 [Compound 9b]		> 10			completely lost their binding affinity					
